Results from US12201696B2, “Multiplexed analysis of materials for tissue delivery” (Georgia Tech Research Corporation, priority 2017, dated 2025).

Tested on: HEK293 cells stably transduced with a CMV-lox-GFP-stop-lox-RFP construct
Experiment: Endocytosis inhibition in LGSL-RFP HEK cells
Type: cell-based
Conditions: for effect on in vitro endocytosis and functional Cre mRNA delivery of ATL1 and ATL2: LGSL-RFP cells
Protocol: For experiments shown in FIG. 1, cells were incubated with endocytosis inhibitors 1 hour prior to incubation with pooled LNPs against clathrin-mediated endocytosis (chlorpromazine, 100 μM, Alfa Aesar), caveolae-mediated endocytosis (genistein, 100 μM, TCI America), and macropinocytosis (5-(N-Ethyl-N-isopropyl) Amiloride, EIPA, 50 μM, Toronto Research Chemicals).
To determine whether FIND could simultaneously measure delivery mediated by many nanoparticles, 54 chemically distinct LNPs were formulated (Table 5, FIGS. 4J-4O); each carried Cre mRNA and a unique DNA barcode. The LNPs were administered to HEK cells in a 6 well plate using an mRNA dose of 10, 100, or 1000 ng/well, and a mRNA: DNA barcode mass ratio of 10:1. A dose-dependent increase in RFP^+ cells was observed, with over 80% of the cells RFP^+ at 1000 ng 72 hours after transfection (FIG. 1G). Barcodes were deep sequenced at all 3 doses, reasoning that LNPs which delivered barcodes at the lowest dose (4% RFP^+ cells) would also deliver LNPs at the middle dose (20% RFP^+ cells). There was a strong relationship between normalized delivery at these 2 doses (FIG. 1H). Cells treated with 1000 ng mRNA were also sequenced. As expected, the relationship between 1000 ng and either 10 or 100 ng weakened, since at this dose, nearly all the cells (>80% were RFP^+), leading to system saturation (FIG. 4P-4Q). Finally, it was evaluated whether the number of RFP^+ cells decreased when cells were pre-treated with Chlorpromazine, Genistein, or Ethylisopropyl amiloride (EIPA), which inhibit clathrin-, caveolin-, and macropinocytosis-mediated endocytosis, respectively. Compared to cells that were not treated with inhibitors, the number of RFP^+ cells decreased by 40-60%, recapitulating previous LNP results (Sahay, Querbes et al. 2013, Dahlman, Barnes et al. 2014, Wittrup, Ai et al. 2015) (FIG. 1I).
Like all high throughput screens, LNPs identified by FIND need to be validated. ATL1 and ATL2 (FIG. 3A, 3B-3E) were selected. […] (FIG. 6C-6F).

| SMILES | inhibition at 100 µM (Homo sapiens, HEK293, pre-treatment 1 hour before pooled 54 LNPs (100 ng total mRNA), chlorpromazine 100 μM, genistein 100 μM, EIPA 50 μM, read-out: decrease in number of RFP+ cells compared to cells not treated with inhibitors) | effect on in vitro endocytosis and functional Cre mRNA delivery of ATL1 and ATL2 |
| --- | --- | --- |
| CN(C)CCCN1c2ccccc2Sc2ccc(Cl)cc21 [Chlorpromazine, chlorpromazine] | 40 to 60% | inhibited |
| CCN(c1nc(N)c(C(=O)N=C(N)N)nc1Cl)C(C)C [EIPA, 5-(N-Ethyl-N-isopropyl) Amiloride] | – | only impacted LNP uptake |
| O=c1c(-c2ccc(O)cc2)coc2cc(O)cc(O)c12 [Genistein, genistein] | – | inhibited |
